Like-named read-outs stand apart in the source and are kept apart here. Each block holds one compound with its values, some of them ahead of it.
Key:
143B cells = experiment: Detection of cell proliferation by cck-8; format: cell-based; conditions: Homo sapiens
Experimental: (§1) 1.2.1 Cell culture: Osteosarcoma cell lines 143B, […], MG63 and SJSA were cultured in DMEM complete culture medium (containing fetal bovine serum with a volume fraction of 10%, 0.1 g/L streptomycin, and 100 U/mL penicillin), and was incubated in a thermostatic incubator containing 5% CO2 (volume fraction) at 37° C. When about 85% cell confluence was reached, the cells were detached by using a mixed cell detachment solution containing 0.02% EDTA and 0.25% trypsin, and then the cells were collected, centrifuged at 1000 r/min for 3 min, and subcultured.
(§2) 1.2.2 Detection of cell proliferation by cck-8: 143B cells, U2OS cells, MG63 cells and SJSA cells in logarithmic growth phase were collected, rinsed with PBS, counted, and dispensed into separate tubes. The cells were seeded into a 96-well plate (3000 cells/well) and cultured for 24 h to allow for cell attachment. […] 100 μL of cck-8 reagent diluted 10-fold with DMEM culture medium was added into each well and the resulting mixture was incubated at 37° C. for 45 minutes. The absorbance value of the resultant in each well at 450 nm was detected by using a microplate reader.

MG63 cells = experiment: Detection of cell proliferation by cck-8; format: cell-based; conditions: Homo sapiens, MG-63
Experimental: as §1, §2

SJSA cells = experiment: Detection of cell proliferation by cck-8; format: cell-based; conditions: Homo sapiens
Experimental: as §1, §2

U2OS cells = experiment: Detection of cell proliferation by cck-8; format: cell-based; conditions: Homo sapiens
Experimental: as §1, §2

[1] = system: osteosarcoma cell lines 143B, U2OS, MG63 and SJSA; experiment: Anti-proliferation effect on osteosarcoma cell lines (statement for all four lines); format: cell-based, Human; conditions: 0, 1, 2 or 4 μM for 24 or 48 hours; time- and concentration-dependent
Experimental: 1.2.2 Detection of cell proliferation by cck-8: 143B cells, U2OS cells, MG63 cells and SJSA cells in logarithmic growth phase were collected, rinsed with PBS, counted, and dispensed into separate tubes. The cells were seeded into a 96-well plate (3000 cells/well) and cultured for 24 h to allow for cell attachment. Anlotinib with different amount-of-substance concentrations (0 μM, 1 μM, 2 μM, 4 μM, 8 μM, 16 μM, 32 μM, and 64 μM) were then added, the mixture was incubated for 24 h, and then the detection was carried out. 100 μL of cck-8 reagent diluted 10-fold with DMEM culture medium was added into each well and the resulting mixture was incubated at 37° C. for 45 minutes. The absorbance value of the resultant in each well at 450 nm was detected by using a microplate reader.
In order to evaluate the anti-proliferation effects of Anlotinib on osteosarcoma cell lines 143B, U2OS, MG63 and SJSA, the osteosarcoma cell lines were treated with Anlotinib with a concentration of 0 μM, 1 μM, 2 μM or 4 μM for 24 hours or 48 hours.

[2] = system: osteosarcoma cell lines 143B, U2OS, MG63 and SJSA; experiment: Detection of cell cycle by flow cytometer; format: cell-based, Human; conditions: 0-4 μM, 24 h, PI staining
Experimental: 1.2.4 Detection of cell cycle by flow cytometer: 143B cells, U2OS cells, MG63 cells and SJSA cells were added to the liquid culture media containing different amount-of-substance concentrations of Anlotinib (0 μM, 1 μM, 2 μM, and 4 μM) for cultivation. The cells were collected after 24 h, centrifuged at 1000 r/min for 1 min, rinsed with PBS, and fixed with 70% ethanol. The PI staining solution of cell cycle analysis kit was added, the mixture was incubated in the dark at room temperature for 15 min, and the detection was carried out by using a flow cytometer. Images were analyzed by using ModFit software. The experiment was repeated 3 times.

[3] = system: osteosarcoma cell lines 143B, U2OS, MG63 and SJSA; experiment: Detection of cell apoptosis by flow cytometer (Annexin-V-FITC/PI), with or without cisplatin; format: cell-based, Human; conditions: 2 μM Anlotinib with 10 μM cisplatin (DDP), 24 h
Experimental: 1.2.5 Detection of cell apoptosis by flow cytometer: 143B cells, U2OS cells, MG63 cells and SJSA cells were added to the liquid culture media containing 2 μM Anlotinib (with or without 10 μM cisplatin (DDP)) for cultivation. The cells were collected after 24 h, centrifuged at 1000 r/min for 1 min, and rinsed with PBS. Afterwards, an Annexin-V-FITC/PI Cell Apoptosis Detection Kit was used to detect the apoptosis of cells. The cells were added to 100 μL of 1×Binding buffer and resuspended, 5 μL of AnnexinV-FITC and 2.5 μL of PI staining reagent were added, and the mixture was shaken and mixed evenly in the dark. The resultant was reacted at room temperature for 15 min, 300 μL of 1×Binding buffer was then added, and the resulting mixture was mixed evenly and detected by a flow cytometer. The experiment was repeated 3 times.

[4] = system: osteosarcoma cell lines 143B, U2OS, MG63 and SJSA; experiment: Transwell cell migration and invasion; format: cell-based, Human; conditions: 1 μM, 24 hours
Experimental: 1.2.6 Experimental analysis of Transwell cell migration and invasion: Cells were seeded at the upper end of the Transwell chamber (5×10^4 cells/well). 143B cells, U2OS cells, MG63 cells and SJSA cells were treated with 1 μM Anlotinib. A culture medium containing 2% serum was added to the upper end of the Transwell chamber (4 hours of pretreatment with 10% matrigel was required in the invasion experiment), and a culture medium containing 10% serum was added to the lower end. After 24 hours, the cells were fixed with 4% paraformaldehyde, stained with crystal violet, and photographed under microscope.

[5] = system: osteosarcoma of the right tibia, lung and pelvic metastasis; experiment: Clinical case Example 7: patient
Experimental: A patient underwent the resection of the lesion on Nov. 7, 2016. On Nov. […] PORT implantation was performed under general anesthesia on Nov. 29, 2016, and the postoperative systemic intravenous adjuvant chemotherapy was performed. […] 1, 2016, and methotrexate (2 cycles of chemotherapy) was administered from Dec. 16, 2016 to Jan. 5, 2017. The CT re-examination performed on Jan. […] Ifosfamide (1 cycle of chemotherapy) was administered on Jan. […] The segmental resection of the tumor of the right proximal tibia, the joint replacement and the transposition of gastrocnemius muscle flap were performed under general anesthesia on Feb. 7, 2017. […] Ifosfamide (1 course of chemotherapy) was administered on Mar. […] Methotrexate was administered on Mar. […] 15, 2017. […] 4, 2017, ifosfamide chemotherapy was given on Jun. […] Methotrexate chemotherapy was given on Jul. […] Ifosfamide chemotherapy was given on Aug. […] The CT re-examination performed on Jan. […] A puncture biopsy of the mass of right femur was performed on Oct.
The patient was treated with anlotinib dihydrochloride capsule (12 mg) once a day via oral administration (2 weeks of continuous administration and 1 week of withdrawal being considered as one treatment cycle) from Nov. 16, 2018. […] 26, 2018.

[6] = system: osteosarcoma of the right proximal fibula; experiment: Clinical case Example 8: patient; format: in vivo; conditions: prior chemotherapy, 1 cycle
Experimental: A patient experienced a pain on the outer side of the right lower leg with no obvious predisposing cause for 6 months. The pain was persistent and unrelated to movements such as walking, and could not be alleviated after rest. The patient was neither diagnosed nor treated, and the pain was gradually aggravated and occurred at night. […] The patient went for consultation on Dec. 1, 2017, and an incision biopsy of the tumor of the limb was performed on December 5. […] On Apr.
Methotrexate chemotherapy was given for 1 day on Dec. 12, 2017, Feb. 7, 2018, May 4, 2018 and Jul. 6, 2018, respectively. IFO chemotherapy (1 cycle) was given during the following time periods: from Dec. 16, 2017 to […], from Mar. 2, 2018 to Mar. 7, 2018 (the therapeutic effect was evaluated as SD), from Apr. 18, 2018 to Apr. 22, 2018 (platelet reduction (Grade IV)), from Jun. 14, 2018 to Jun. 18, 2018 (the therapeutic effect was evaluated as SD), from Aug. 30, 2018 to Sep. 3, 2018 (the therapeutic effect was evaluated as PD). Cisplatin and amrubicin chemotherapy (1 cycle) was respectively given during the following time periods: from Jan. 17, 2018 to Jan. 20, 2018, from May 24, 2018 to May 27, 2018, and from Jul. 20, 2018 to Jul. 23, 2018 (the therapeutic effect was evaluated as SD). […]

[7] = system: osteosarcoma (chondroblastic type) of the right proximal humerus, bilateral lung metastasis; experiment: Clinical case Example 6: patient; format: in vivo, human; conditions: prior high-dose chemotherapy, 6 courses, Aug-Dec 2016
Experimental: A patient underwent the surgical removal of the osteosarcoma lesion in the right proximal humerus and the humeral head prosthesis replacement on Apr. 27, 2013. […] Doxorubicin and ifosfamide were administered after the surgery. […] Bone marrow support therapy was given during the intermission of chemotherapy until the end of chemotherapy in August 2013. […] 1. […] 2. There were enlarged lymph nodes in the right axilla with slight increase in metabolism. The patient was treated by being administered with CIK cells via infusion after the completion of the chemotherapy. At the end of 2015, the patient experienced pain in the upper part of the left humerus, no obvious mass was seen, and the patient suffered from the recurrent pain. […] 1. There was no sign of tumor recurrence in the right humerus after the surgery of the osteosarcoma of the right humerus and the comprehensive treatment, and there was a stripe-shaped hypermetabolic lesion in the upper part of the left humerus. 2. There was no sign of lymph node metastasis in the bilateral armpits. 3. […] On Jun. 7, 2016 and Jul. 1, 2016, the patient underwent 2 courses of doxorubicin and ifosfamide chemotherapy and the process went well. […] Microwave inactivation of the tumor of the left proximal humerus and the bone graft internal fixation was performed on Jul. 22, 2016. […]

- IC50 (SJSA cells; 24 h, read-out: IC50 (24 h)): 25.7 µM
- IC50 (SJSA cells; 48 h, read-out: IC50 (48 h)): 10.2 µM
- IC50 (U2OS cells; 24 h, read-out: IC50 (24 h)): 41.3 µM
- IC50 (U2OS cells; 48 h, read-out: IC50 (48 h)): 25.9 µM
Structure (SMILES): COc1cc2c(Oc3ccc4[nH]c(C)cc4c3F)ccnc2cc1OCC1(N)CC1 [Anlotinib, 1-[[[4-(4-fluoro-2-methyl-1H-indol-5-yl)oxy-6-methoxyquinolin-7-yl]oxy]methyl]cyclopropylamine]
- IC50 (143B cells; 24 h, read-out: IC50 (24 h)): 20.8 µM
- IC50 (143B cells; 48 h, read-out: IC50 (48 h)): 7.95 µM
- IC50 (MG63 cells; MG63, 24 h, read-out: IC50 (24 h)): 30.1 µM
- IC50 (MG63 cells; MG63, 48 h, read-out: IC50 (48 h)): 14.8 µM
- effect on the proliferation of the osteosarcoma cell lines [1]: significant inhibitory effect
- cell cycle arrest [2]: G2/M cycle arrest occurred in cells
- cells in G1 phase [2]: decrease of cells in G1 phase
- apoptosis of osteosarcoma cell lines caused by cisplatin [3]: significantly enhancing
- migration of osteosarcoma cell lines [4]: greatly inhibited
- invasion of osteosarcoma cell lines ([4]; matrigel): greatly inhibited

Structure (SMILES): O=P1(NCCCl)OCCCN1CCCl (centres unmarked) [Ifosfamide, ifosfamide]
- tolerability of chemotherapy ([5]; prior chemotherapy, 1 cycle, Jan. 19, 2017): no obvious gastrointestinal reaction and bone marrow suppression
- leucocytopenia grade ([5]; prior chemotherapy, Aug. 16, 2017): Grade IV
- leucocytopenia grade ([5]; prior chemotherapy, Jun. 19, 2017 (after doxorubicin and cisplatin Jun. 4, 2017)): Grade IV
- leucocytopenia grade ([5]; prior chemotherapy, Mar. 10, 2017): Grade II
- leucocytopenia grade ([5]; prior chemotherapy, May 3, 2017): Grade IV
- platelet reduction grade ([6]; Apr. 18, 2018 to Apr. 22, 2018): Grade IV
- therapeutic effect ([6]; Aug. 30, 2018 to Sep. 3, 2018): PD (progressive disease, specifically means that the sum of the diameters of the tumor target lesions increases by 20% or more from the baseline level)

- bone marrow suppression grade [7]: Grade I to II
- bone marrow suppression grade ([5]; human, in vivo): Grade II
Structure (SMILES): CN(Cc1cnc2nc(N)nc(N)c2n1)c1ccc(C(=O)N[C@@H](CCC(=O)O)C(=O)O)cc1 [Methotrexate, methotrexate]

From patent US20200316053A1, “APPLICATION OF NOVEL TYROSINE KINASE INHIBITOR, ANLOTINIB, IN OSTEOSARCOMA AND CHONDROSARCOMA” (CHIA TAI TIANQING PHARMACEUTICAL GROUP CO., LTD., priority 2018, published 2020)
